Experimental data: patent publication US12410164B2, “Heterocyclic compounds and medical use thereof” (FONDAZIONE TELETHON, priority 2018, dated 2025)
Entries after “also recorded” stand apart in the source; their conditions may differ.

Experiments:
[1] = target: T1, F508del-CFTR (Homo sapiens, UniProt P13569, DEL508-508); assay: HS-YFP kinetic fluorescence (iodide quenching rate) assay in CFBE41o− cells; type: cell-based; parameters: expressed in transfected cells; host or cells: CFBE41o- cells with expression of F508del-CFTR and HS-YFP (generated as in Sondo et al. 2011); conditions: for AI (%) additivity index: Table 1, compound at 10 μM plus VX-809, (QRTOT − QRVX)/QRVX, HS-YFP assay; for structure-activity comparison of corrector potency/activity: relative to the analogue
Procedure, shortened: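 CFBE41o- cells co-expressing F508del-CFTR and HS-YFP, treated 24 h with compound (0.1-0.2% DMSO), then stimulated with 20 μM forskolin plus 50 μM genistein. Fluorescence was read for 14 s during NaI injection. Background-subtracted, normalized traces were fitted exponentially to give maximum quenching rate (QR).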

[2] = target: T1, F508del-CFTR; assay: Analysis of F508del-CFTR maturation by immunoblot in CFBE41o− cells; type: cell-based; parameters: expressed in transfected cells; host or cells: CFBE41o- cells with expression of F508del-CFTR and HS-YFP (generated as in Sondo et al. 2011); conditions: compound 10 μM plus VX-809 1 μM, 24 hr
Protocol: CFBE41o− cells were grown to confluence on 60-mm diameter dishes and lysed in RIPA buffer containing a complete protease inhibitor (Roche; cat. n. 11697498001). Cell lysates were centrifuged at 12000 rpm at 4° C. for 10 min. Supernatant protein concentration was calculated using the BCA assay (Euroclone; cat. n. EMP014500) following the manufacturer's instructions. Equal amounts of total protein content (30 μg) were separated onto 10% Criterion TGX Precast gels (Bio-rad laboratories Inc.; cat. n. 4561033), transferred to nitrocellulose membrane with Trans-Blot Turbo system (Bio-rad Laboratories Inc.) and analyzed by Western blotting. Primary antibody for CFTR was anti-CFTR 596 (University of North Carolina at Chapel Hill, and Cystic Fibrosis Foundation Therapeutics, see Cui L, et al. J. Mol Biol 2007, 365, 981-994) at 1:5000 dilution. As secondary antibody, anti-mouse HRP-conjugated Ab 97023 (Abcam) was used at 1:10000 dilution. Results were subsequently visualized by chemiluminescence using the SuperSignal West Femto Substrate (Thermo Scientific) and the Molecular Imager ChemiDoc XRS System.
To analyze the mechanism of action of the compounds of the invention, two types of experiments were carried out. In the first type of experiment, the electrophoretic mobility of F508del-CFTR protein was determined by immunoblot assay. This is a frequently used method to assess the effect of correctors at the protein level. In control conditions, F508del-CFTR migrates predominantly as a single band of 150 kDa called “band B”. This is the immature form of the protein residing in the endoplasmic reticulum. When the protein folding and stability is improved by correctors, an additional band appears at higher molecular weight (170 kDa). This is the so-called band C, which represents the mature form of the CFTR protein that has reached the Golgi compartment and acquired full glycosylation.

T1 sequence (P13569 with tags, fused parts or gaps DEL508-508): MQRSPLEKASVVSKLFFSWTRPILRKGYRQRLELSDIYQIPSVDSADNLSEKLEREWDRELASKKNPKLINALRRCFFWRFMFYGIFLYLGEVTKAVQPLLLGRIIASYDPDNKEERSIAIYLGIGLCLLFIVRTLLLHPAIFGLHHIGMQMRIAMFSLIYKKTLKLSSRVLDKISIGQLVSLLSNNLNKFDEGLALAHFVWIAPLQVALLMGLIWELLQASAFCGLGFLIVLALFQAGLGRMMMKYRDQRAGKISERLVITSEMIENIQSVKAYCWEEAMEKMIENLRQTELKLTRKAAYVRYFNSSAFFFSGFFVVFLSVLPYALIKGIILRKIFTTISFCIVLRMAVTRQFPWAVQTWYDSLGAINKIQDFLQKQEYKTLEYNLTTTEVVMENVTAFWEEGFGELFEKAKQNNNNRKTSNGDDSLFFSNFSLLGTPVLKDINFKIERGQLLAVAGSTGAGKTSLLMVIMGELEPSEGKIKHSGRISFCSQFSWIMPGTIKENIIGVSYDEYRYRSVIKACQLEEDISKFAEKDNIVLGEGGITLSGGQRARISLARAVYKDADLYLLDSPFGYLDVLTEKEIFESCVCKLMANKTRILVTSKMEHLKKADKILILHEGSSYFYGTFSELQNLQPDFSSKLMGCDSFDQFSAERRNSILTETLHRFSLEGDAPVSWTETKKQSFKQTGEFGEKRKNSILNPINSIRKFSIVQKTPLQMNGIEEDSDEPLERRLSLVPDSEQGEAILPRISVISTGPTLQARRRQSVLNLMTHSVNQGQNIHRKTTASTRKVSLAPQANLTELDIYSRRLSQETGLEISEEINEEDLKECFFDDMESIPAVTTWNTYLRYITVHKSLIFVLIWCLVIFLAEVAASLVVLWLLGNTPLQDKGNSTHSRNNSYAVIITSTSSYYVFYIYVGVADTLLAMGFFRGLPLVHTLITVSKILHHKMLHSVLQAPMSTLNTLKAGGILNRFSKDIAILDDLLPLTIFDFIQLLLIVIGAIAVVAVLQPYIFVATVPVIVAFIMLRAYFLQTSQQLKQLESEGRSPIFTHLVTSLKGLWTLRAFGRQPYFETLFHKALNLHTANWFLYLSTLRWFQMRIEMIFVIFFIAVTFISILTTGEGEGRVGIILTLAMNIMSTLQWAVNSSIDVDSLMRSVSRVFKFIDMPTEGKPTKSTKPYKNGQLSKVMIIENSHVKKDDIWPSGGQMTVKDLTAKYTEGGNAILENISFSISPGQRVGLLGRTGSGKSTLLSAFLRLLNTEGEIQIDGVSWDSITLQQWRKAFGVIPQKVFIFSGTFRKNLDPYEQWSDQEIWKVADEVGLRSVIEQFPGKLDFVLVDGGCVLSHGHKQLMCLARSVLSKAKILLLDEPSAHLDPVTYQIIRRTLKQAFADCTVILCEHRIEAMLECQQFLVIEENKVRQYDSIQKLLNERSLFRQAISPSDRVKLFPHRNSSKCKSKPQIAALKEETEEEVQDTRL

Row | AI (%) additivity index [1] [%] | F508del-CFTR activity (quenching rate) of combination with VX-809 ([1]; compound plus VX-809 1 μM, 24 h) | Structure (SMILES) | structure-activity comparison of corrector potency/activity [1] | band C (mature form) expression versus VX-809 alone [2]
1 | 207 | strong synergistic effect | CCOC(=O)c1c(Br)c2c(n1Cc1ccc(C)cc1)-c1[nH]c(=O)c(S(=O)(=O)c3ccccc3)cc1CC2 [PP008, Ethyl 7-(benzenesulfonyl)-3-bromo-1-[(4-methylphenyl)methyl]-8-oxo-4,5,8,9-tetrahydro-1H-pyrrolo[3,2-h]quinoline-2-carboxylate] | important increase in potency; also recorded: more potent than the non-halogenated analogues | markedly enhances the abundance of the mature form of the protein; also recorded: marked increase in band C expression
2 | 278 |  | CCOC(=O)c1c(Br)c2c(n1Cc1cccc(C)c1)-c1[nH]c(=O)c(S(=O)(=O)c3ccccc3)cc1CC2 [PP028, Ethyl 3-bromo 1-(3-methylbenzyl)-8-oxo-7-(phenylsulfonyl)-4,5,8,9-tetrahydro-1H-pyrrolo[3,2-h]quinoline-2-carboxylate] | important increase in efficiency in combination with the VX-809 and potency | markedly enhances the abundance of the mature form of the protein; also recorded: marked increase in band C expression
